Data taken from ChEMBL document CHEMBL1201862, “PubChem BioAssay data set” (2004).
Calls of active or inactive are those of the source.

Columns and labels:
Aminopeptidase N = biological target: T1, Aminopeptidase N (Plasmodium falciparum FcB1/Columbia, UniProt O96935); test: P. falciparum M1AAP inhibitors, biochemical, fluorogenic H-Leu-NHMec substrate, 1536-well (AID 1445); parameters: species or system Plasmodium falciparum 3D7, 3D7
T1 sequence (O96935 whole entry): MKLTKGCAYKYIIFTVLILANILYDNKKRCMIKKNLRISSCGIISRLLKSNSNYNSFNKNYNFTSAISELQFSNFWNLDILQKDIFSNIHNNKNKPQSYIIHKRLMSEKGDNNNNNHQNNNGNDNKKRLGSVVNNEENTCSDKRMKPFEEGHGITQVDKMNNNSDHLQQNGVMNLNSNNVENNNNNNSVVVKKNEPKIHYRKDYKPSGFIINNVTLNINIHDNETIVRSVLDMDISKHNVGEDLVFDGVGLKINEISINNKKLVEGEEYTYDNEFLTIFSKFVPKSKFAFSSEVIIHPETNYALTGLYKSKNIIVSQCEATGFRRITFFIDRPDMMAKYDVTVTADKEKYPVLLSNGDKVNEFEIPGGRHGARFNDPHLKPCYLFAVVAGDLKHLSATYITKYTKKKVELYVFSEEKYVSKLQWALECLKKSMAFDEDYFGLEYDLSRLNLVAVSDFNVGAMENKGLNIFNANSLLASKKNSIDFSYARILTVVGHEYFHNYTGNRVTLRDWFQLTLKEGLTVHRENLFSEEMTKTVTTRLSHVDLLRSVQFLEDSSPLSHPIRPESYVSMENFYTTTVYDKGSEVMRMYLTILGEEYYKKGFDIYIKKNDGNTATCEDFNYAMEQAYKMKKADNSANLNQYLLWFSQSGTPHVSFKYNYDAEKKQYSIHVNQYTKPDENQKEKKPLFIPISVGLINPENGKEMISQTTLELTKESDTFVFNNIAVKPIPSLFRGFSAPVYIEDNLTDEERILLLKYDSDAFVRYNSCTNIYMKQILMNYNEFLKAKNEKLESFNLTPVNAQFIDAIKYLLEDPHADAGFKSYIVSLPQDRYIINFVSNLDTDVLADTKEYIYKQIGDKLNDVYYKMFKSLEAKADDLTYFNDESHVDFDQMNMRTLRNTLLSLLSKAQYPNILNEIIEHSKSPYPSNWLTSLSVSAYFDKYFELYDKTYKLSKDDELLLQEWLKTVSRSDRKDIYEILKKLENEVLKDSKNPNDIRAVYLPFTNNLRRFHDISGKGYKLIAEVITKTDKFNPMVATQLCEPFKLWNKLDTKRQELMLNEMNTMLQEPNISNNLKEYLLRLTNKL

[1] = Luminescence-based counterscreen assay for KLF5 inhibitors: dose response cell-based high throughput screening assay to identify cytotoxic compounds using the IEC-6 intestinal epithelial cell line. [Related pubchem assays: 1700 (Primary screen.), 1834 (Confirmation screen.), 1858 (Summary AID.), 1905 (Counterscreen.)]; type: functional
HeLa = test: HeLa cell cytotoxicity, dose response, cytotoxicity control, 24 h, cherry-picked samples (AID 504726); type: functional, cell-based; conditions: Homo sapiens;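 note: potency for cytotoxicity as loss of luminescence signal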
[2] = biological target: FAD-linked sulfhydryl oxidase ALR (Homo sapiens, UniProt P55789); test: inhibitors of human ALR sulfhydryl oxidase, dose response, biochemical, H2O2 detection, luminescence, cherry-pick (AID 493248)
[3] = biological target: T2, Microphthalmia-associated transcription factor (Homo sapiens, UniProt O75030); test: TRPM1 promoter luciferase signal decrease, dose response, MITF inhibitor project, cell-based, SK-MEL-5, cherry-picked, set 3 (AID 493073); type: functional
T2 sequence (O75030 whole entry): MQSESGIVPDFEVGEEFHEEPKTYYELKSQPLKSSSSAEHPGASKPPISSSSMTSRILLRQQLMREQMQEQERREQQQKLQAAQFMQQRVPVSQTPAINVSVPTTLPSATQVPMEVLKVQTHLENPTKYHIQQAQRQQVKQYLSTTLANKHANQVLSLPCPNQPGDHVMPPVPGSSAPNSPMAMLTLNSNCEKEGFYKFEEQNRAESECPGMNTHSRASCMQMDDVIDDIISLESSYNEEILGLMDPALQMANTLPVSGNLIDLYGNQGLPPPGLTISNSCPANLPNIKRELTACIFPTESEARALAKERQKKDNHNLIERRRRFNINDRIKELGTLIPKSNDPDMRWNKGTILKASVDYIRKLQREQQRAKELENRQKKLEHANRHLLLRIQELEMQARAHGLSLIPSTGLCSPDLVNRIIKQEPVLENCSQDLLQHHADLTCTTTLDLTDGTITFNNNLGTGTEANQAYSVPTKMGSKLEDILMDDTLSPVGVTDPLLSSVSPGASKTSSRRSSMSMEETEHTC

[4] = inhibitors of HIV Env-driven cell fusion, dose response, cherry-pick (AID 652057); type: functional, cell-based
[5] = ZM109 Env clade C HIV-1 fusion inhibitors, dose response, HeLa effector, CEM target cells, luciferase, cherry-pick (AID 652058); type: functional, cell-based
Paired box protein Pax-8 = Paired box protein Pax-8 (Homo sapiens, UniProt Q06710); test: inhibitors of PAX8-driven TPO luciferase reporter, dose response, RMG-I cells, cherry-pick (AID 687027); type: functional, cell-based;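 note: luciferase reporter driven by Pax8 target thyroperoxidase promoter measured by SteadyGlo luminescence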
[6] = off-target signal loss in HeLa-CEM21 co-culture – HeLa F-luc CTL cells, cherry-picked, counter-screen for HIV-1 Env fusion inhibitor project, dose response (AID 652040); type: functional, cell-based;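 note: potency for signal decrease marking cytotoxic or nonspecific inhibition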
[7] = inhibitors of clade B AD8 Env fusion, dose response, cell-based, cherry-pick (AID 652062); type: functional;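 note: luciferase signal from cell-cell fusion driven by HIV-1 clade B AD8 Env; potency is for inhibitors of fusion seen as a drop in luminescence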
[8] = LGR2 antagonists, dose response, cell-based, HEK293, CRE-luciferase reporter, cherry pick, set 2 (AID 743343); type: functional;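 note: transfected cells were stimulated with diluted bursicon conditioned medium after compound addition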
[9] = non-specific cell cytotoxicity, dose response, cytotoxicity control for PAX8 inhibitor project, plate reader, dry powder samples (AID 743021); type: functional, cell-based
[10] = MC4R antagonists, dose response, counter-screen for LGR2 antagonist project, cell-based, plate reader, cherry pick (AID 743444); type: functional;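 note: transfected HEK 293 cells stimulated with alpha-MSH peptide; potency of inhibitors of the alpha-MSH evoked signal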
[11] = HEK293 cell cytotoxicity, dose response, cytotoxicity control, plate reader, cherry-picked samples (AID 743446); type: functional, cell-based
[12] = biological target: Luciferin 4-monooxygenase (Photinus pyralis, UniProt P08659); test: Counter Screen for Luciferase-based Assay Positives. [Related pubchem assays: 620, 618, 411 ]
HT-1080 = test: cytotoxicity in HT1080 fibrosarcoma cells, cell-based, fluorescence readout (AID 620); type: functional; conditions: Homo sapiens
Caspase-3 = biological target: T3, Caspase-3 (Homo sapiens, UniProt P42574); type: functional;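 note: Dose-response selectivity test against caspase-3 for candidate inhibitors of sentrin-specific proteases (SENPs)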
T3 sequence (P42574 whole entry): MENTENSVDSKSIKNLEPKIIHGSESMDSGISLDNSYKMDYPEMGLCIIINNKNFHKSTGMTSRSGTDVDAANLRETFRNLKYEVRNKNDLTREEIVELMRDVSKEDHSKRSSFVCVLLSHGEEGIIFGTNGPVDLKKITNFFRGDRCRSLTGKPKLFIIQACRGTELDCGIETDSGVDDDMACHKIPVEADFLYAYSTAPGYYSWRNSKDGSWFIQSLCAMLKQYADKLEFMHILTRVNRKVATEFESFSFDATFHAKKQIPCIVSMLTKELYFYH

[13] = biological target: T4, Sentrin-specific protease 7 (Homo sapiens, UniProt Q9BQF6); type: functional;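 note: Luminescence-based dose-response confirmation of ultra-high-throughput screening hits, measuring inhibition of SENP7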
T4 sequence (Q9BQF6 whole entry): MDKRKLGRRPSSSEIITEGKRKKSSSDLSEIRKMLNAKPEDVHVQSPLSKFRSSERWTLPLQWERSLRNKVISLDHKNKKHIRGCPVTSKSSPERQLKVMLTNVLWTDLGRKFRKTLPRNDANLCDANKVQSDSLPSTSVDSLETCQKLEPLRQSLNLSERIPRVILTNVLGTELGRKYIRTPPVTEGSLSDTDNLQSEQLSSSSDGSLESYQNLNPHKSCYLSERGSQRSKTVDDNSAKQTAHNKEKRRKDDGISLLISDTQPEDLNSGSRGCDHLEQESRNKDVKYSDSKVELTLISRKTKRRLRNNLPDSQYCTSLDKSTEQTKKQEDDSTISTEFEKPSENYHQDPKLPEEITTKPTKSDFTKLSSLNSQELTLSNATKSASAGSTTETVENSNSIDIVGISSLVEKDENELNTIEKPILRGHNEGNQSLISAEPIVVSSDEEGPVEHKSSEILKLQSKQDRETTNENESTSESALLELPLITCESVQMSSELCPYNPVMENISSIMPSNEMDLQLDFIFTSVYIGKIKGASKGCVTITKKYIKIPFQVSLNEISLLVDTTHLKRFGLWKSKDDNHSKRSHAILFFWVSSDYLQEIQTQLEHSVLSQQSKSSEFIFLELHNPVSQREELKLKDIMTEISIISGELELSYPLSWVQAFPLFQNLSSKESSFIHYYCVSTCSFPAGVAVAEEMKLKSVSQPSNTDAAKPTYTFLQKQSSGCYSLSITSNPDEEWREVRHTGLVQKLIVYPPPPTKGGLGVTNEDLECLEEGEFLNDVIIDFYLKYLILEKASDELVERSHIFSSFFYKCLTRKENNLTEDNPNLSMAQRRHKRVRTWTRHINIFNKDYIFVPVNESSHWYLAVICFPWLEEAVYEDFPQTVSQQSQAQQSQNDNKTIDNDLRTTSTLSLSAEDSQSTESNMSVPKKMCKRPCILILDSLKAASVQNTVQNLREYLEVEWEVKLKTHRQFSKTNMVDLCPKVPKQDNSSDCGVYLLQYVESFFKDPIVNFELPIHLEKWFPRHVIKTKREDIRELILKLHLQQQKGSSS

[14] = biological target: T5, Sentrin-specific protease 6 (Homo sapiens, UniProt Q9GZR1); type: functional;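 note: Luminescence-based dose-response confirmatory assay of SENP6 inhibition, following up an ultra-high-throughput screen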
T5 sequence (Q9GZR1 whole entry): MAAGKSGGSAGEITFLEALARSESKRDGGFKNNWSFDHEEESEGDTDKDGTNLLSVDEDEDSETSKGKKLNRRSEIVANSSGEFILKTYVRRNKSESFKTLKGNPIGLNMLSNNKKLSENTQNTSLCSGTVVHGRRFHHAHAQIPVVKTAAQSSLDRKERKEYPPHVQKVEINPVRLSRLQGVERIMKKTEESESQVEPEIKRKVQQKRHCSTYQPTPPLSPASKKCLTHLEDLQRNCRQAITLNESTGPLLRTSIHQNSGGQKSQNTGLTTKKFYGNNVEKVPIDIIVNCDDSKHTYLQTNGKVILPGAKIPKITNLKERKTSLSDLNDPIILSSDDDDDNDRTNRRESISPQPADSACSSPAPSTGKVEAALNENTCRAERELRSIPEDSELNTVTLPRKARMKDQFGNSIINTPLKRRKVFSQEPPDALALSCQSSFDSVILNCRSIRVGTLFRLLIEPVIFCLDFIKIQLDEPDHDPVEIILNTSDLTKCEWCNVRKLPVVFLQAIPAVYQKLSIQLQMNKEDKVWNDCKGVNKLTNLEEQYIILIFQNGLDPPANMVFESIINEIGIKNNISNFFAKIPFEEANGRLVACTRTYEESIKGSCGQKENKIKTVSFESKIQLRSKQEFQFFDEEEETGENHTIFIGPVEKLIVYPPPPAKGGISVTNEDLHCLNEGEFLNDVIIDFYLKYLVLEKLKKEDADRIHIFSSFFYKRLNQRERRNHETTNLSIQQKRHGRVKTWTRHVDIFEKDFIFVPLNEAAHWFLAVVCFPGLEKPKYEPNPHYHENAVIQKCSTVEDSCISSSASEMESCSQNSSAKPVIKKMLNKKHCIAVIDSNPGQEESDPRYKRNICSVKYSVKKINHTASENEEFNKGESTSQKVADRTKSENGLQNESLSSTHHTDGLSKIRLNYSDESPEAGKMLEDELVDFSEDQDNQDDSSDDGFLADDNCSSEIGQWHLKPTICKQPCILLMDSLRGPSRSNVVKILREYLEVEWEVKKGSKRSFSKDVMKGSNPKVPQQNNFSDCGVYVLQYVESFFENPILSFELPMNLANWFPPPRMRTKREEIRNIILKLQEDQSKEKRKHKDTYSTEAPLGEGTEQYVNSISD

[15] = biological target: T6, Sentrin-specific protease 8 (Homo sapiens, UniProt Q96LD8); type: functional;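 note: luminescence read-out of SENP8 inhibition, dose-response confirmation following an ultra-high-throughput screen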
T6 sequence (Q96LD8 whole entry): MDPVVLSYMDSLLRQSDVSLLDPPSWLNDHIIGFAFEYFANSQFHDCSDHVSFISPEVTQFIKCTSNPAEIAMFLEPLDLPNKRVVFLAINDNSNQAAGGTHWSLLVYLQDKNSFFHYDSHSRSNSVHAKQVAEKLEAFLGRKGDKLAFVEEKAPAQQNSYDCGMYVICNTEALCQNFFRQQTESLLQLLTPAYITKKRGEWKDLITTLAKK

[16] = biological target: T7, Oxysterols receptor LXR-beta (Homo sapiens, UniProt P55055); type: functional, cell-based;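 note: Cell-based luminescence dose-response assay of agonist activity at LXR, run as a confirmatory counterscreen to a daf-12 agonist screen; HEK293 cells with Gal4-LXR fusion and GAL4-driven luciferase reporter; agonist potency from rising luciferase signal of a Gal4-LXR reporter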
T7 sequence (P55055 whole entry): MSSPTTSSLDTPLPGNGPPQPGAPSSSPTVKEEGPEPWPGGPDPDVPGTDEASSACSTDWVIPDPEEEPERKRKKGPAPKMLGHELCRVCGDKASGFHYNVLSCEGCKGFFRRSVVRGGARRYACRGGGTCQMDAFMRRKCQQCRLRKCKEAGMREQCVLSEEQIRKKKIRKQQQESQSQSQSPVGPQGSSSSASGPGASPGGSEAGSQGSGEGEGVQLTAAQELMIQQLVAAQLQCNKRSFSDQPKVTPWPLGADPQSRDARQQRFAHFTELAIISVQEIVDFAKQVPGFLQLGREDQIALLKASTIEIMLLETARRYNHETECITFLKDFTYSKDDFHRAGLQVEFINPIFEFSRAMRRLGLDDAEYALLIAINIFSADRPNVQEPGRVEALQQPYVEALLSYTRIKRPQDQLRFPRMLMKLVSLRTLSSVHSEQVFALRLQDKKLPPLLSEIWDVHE

Chain of FAD-linked sulfhydryl oxidase ALR (P55789 whole entry): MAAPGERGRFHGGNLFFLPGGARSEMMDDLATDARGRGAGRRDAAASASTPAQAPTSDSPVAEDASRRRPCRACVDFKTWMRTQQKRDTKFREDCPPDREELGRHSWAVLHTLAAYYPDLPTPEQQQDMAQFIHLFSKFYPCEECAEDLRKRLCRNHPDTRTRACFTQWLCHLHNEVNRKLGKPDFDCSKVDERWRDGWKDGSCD
Chain of Paired box protein Pax-8 (Q06710 whole entry, the tested form may be a part): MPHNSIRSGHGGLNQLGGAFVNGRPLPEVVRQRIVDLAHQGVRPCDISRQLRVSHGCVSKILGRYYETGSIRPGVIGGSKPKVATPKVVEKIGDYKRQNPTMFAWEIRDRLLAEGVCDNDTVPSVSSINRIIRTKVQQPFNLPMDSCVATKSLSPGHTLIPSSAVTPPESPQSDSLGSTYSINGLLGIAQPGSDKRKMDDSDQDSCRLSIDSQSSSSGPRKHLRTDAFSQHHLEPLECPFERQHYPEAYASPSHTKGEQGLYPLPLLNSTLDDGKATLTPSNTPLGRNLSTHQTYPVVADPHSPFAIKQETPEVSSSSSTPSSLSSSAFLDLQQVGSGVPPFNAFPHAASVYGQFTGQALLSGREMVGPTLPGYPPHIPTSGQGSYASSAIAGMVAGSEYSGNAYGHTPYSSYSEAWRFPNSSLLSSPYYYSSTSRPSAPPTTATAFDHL
Chain of Luciferin 4-monooxygenase (P08659 whole entry): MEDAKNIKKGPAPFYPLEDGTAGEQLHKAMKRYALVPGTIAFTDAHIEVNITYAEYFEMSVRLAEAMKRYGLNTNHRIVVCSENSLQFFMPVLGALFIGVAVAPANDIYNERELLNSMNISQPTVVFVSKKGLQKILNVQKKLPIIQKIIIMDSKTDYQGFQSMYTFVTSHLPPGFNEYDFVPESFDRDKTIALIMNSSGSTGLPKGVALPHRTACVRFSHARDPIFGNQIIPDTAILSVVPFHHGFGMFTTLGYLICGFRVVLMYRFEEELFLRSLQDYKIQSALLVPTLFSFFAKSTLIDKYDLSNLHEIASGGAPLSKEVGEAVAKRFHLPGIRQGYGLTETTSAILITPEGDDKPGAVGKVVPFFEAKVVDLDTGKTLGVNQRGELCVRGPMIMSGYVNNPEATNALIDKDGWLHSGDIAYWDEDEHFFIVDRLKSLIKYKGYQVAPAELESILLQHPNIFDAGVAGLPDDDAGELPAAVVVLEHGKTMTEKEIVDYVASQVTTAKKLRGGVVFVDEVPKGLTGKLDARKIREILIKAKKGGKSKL

Nc1ccc(-c2nc3ccc(C(=O)O)cc3s2)cc1
IC50 (Aminopeptidase N): 25700 nM (active) | IC50 [1]: > 39800 nM (not active) | AC50 (HeLa): 313000 nM (active) | AC50 [2]: 839 nM (active) | AC50 [3]: 866 nM (active) | AC50 [4]: 1030 nM (active) | AC50 [5]: 4570 nM (active) | AC50 (Paired box protein Pax-8): 2600 nM (active) | AC50 [6]: 1910 nM (active) | AC50 [7]: 1600 nM (active) | AC50 [8]: 749 nM (active) | AC50 [9]: 30400 nM (active) | AC50 [10]: 649 nM (active) | AC50 [11]: 48600 nM (active)

COc1cc([N+](=O)[O-])ccc1N/C=C/C(=O)c1cccs1
EC50 [12]: 4170 nM (active) | EC50 (HT-1080): > 50000 nM (not active) | IC50 (Caspase-3): 1530 nM (active) | IC50 [13]: 863 nM (active) | IC50 [14]: 1150 nM (active) | IC50 [15]: 2620 nM (active) | EC50 [16]: > 67500 nM (inactive) | EC50 (cells): > 67500 nM (inactive)
